The conditions of series [1]: when oxidized to the 4+ state; cited from earlier work.
The nature of series [2]: Cyclic voltammetry (formal potential, diffusion coefficient). Type of series: physicochemical. The settings on record: for diffusion coefficient for the one-electron oxidation: 0.5 M TBAPF6, Randles-Sevcik fit. The protocol: (§1) Cyclic voltammetry was carried out in DMSO using a 3 mm glassy carbon electrode as working electrode, a Pt wire counter electrode, a silver wire pseudo reference electrode and tetrabutylammonium hexafluorophosphate as supporting […]. Ferrocene was used as an internal potential reference. Static cell cycling was carried out using graphite felt (Alfa Aesar, part #AA14630RR) which was heat-treated in a furnace at 250° C. under air, overnight, before use.
CV data with variable scan rates were used to determine the diffusion coefficient for the one-electron oxidation of CVBH^−2 by fitting with the Randles-Sevcik equation. In addition, to investigate the effect of solvent on this property, the analysis was carried out in propylene carbonate (PC).

For series [3] the following is noted: reduced, vanadium(iv) state; cited from earlier work.
The conditions of series [4]: earlier study, sample contaminated by mono-sodium salt of the ligand; cited from earlier work.
A short description of series [5]: Metal-ligand stability constant. It is filed as physicochemical. The settings on record: oxidized, vanadium(v) state; deduced using a thermodynamic cycle. The text has this: (§2) Any decomposition of CVBH under these conditions would be evident as a decrease in peak current and changes in reversibility, as the identity of the species present at the electrode evolved over time. […] This is in stark contrast to the anaerobic and anhydrous conditions that are necessary in handling other NRFB active materials. […] This occurs even in ostensibly anhydrous systems due to the presence of adventitious water, and is the result of ligand substitution, yielding a vanadyl (V═O) species that is nearly ubiquitous in aqueous vanadium(iv) coordination chemistry. It should be further noted that CVBH is stable in both the reduced, vanadium(iv), state (as-synthesized) and the oxidized, vanadium(v) state, with metal ligand stability constants of 8.2×10^21 and 2.6×10^23, respectively. While the former has been measured, the latter can be deduced using a thermodynamic cycle, constructed from published data for the vanadium(iv/v) reduction potentials of CVBH and aqueous, acidic vanadium ions, along with the metal-ligand stability constant of CVBH in the vanadium(iv) oxidation state (FIG. 4).

Series [6] can be described thus: Exhaustive cycling using cyclic voltammetry (stability). Type of series: physicochemical. The method, then: as §1
as §2, with “It should be further noted that CVBH is stable in both the reduced, vanadium(iv), state (as-synthesized) and the oxidized, vanadium(v) state, with metal ligand stability constants of 8.2×10^21 and 2.6×10^23, respectively.” left out

The nature of another series: Solubility in solvents. It is filed as physicochemical. The settings on record: solvents other than DMSO and water. The text has this: Since the solubility of CVBH is low in solvents other than DMSO and water, investigation of the electrochemistry in PC necessitated the synthesis of the bis-tetramethylammonium (TMA) salt of vanadium bis-hydroxyiminodiacetate (VBH), which was characterized using FTIR and X-ray crystallography (FIG. 2). While the coordination sphere of the VBH dianion is unperturbed compared to that of CVBH, solubility is greatly altered with two diffuse TMA countercations compared to the Ca^+2 counter-cation of CVBH. Altering the cation(s) of VBH^2− is a way to tune solubility in various battery-relevant solvents and compatibility with an array of membrane/separator architectures and supporting electrolytes. These attributes are paramount to realization of high power and energy densities in NRFB systems and this strategy offers a promising avenue for optimization.

A short description of series [7]: Static cell cycling to ~80% state of charge. The note with it: more than 90 cycles, 0.35 V and −0.35 V vs. open circuit. It is filed as physicochemical. The method, then:
as §1
As such, the behavior of CVBH during cycling to ˜80% state of charge was investigated by alternately applying potentials of 0.35 V and −0.35 V vs. open circuit to oxidize and reduce the compound, respectively. […] Some decrease in peak current over time was observed (FIG. 5B), however, it was restored after stirring was stopped for 20 minutes (FIG. 5B, dotted line).

Read-outs that look alike come from different tables or passages of the source.

Turning to `CC(=O)/C=C(/C)O.CC(=O)/C=C(/C)O.CC(=O)/C=C(/C)O.[V]` [V(acac)3], the “stability in the presence of water” value in series [1] is listed as “rapidly decomposes”.

Take `O.O.O.O.O.O=C([O-])CN(O)CC(=O)[O-].O=C([O-])CN(O)CC(=O)[O-].[Ca].[V+4]` [CVBH, Calcium(ii) vanadium(iv)bis-hydroxyiminodiacetate pentahydrate]: the “diffusion coefficient for the one-electron oxidation” value in series [2] (DMSO) is on record as 8.3×10^−7 cm^2·s^−1; in series [2] (propylene carbonate (PC)) it was 5.6×10^−7 cm^2·s^−1. The “formal potential (E°′=E1/2)” value in series [2] (DMSO, ferrocene as internal standard) was 0.30 V vs standard hydrogen electrode (SHE). Besides, the figures for the “metal ligand stability constant” value in series [3] and in series [5] were 8.2×10^21 and 2.6×10^23, respectively. The “formal potential, previously reported value” in series [4] is 0.38 V vs. SHE. Further, in series [6] (20% water (by volume) in the presence of oxygen), the “change in voltammogram after addition of water” value is “no change in voltammogram shape”. Moreover, in series [6] (over 800 cycles), the “change in voltammogram on exhaustive CV cycling” value is “virtually no change in the shape of the voltammogram”. For the same compound, the solubility entry in the series “Solubility in solvents” is reported as “low”. In series [7], the “change in CV before and after static cell cycling” value is reported as “no observed change in the shape of the CV”.

The values above are taken from patent US11267830B2, “Flow battery and components thereof” (University of Massachusetts, priority 2017, dated 2022).
